Like-named read-outs stand apart in the source and are kept apart here.
What was measured:
[1] = molecular target: T1, 24-hydroxylase (Homo sapiens, UniProt Q07973); settings: Kahraman et al., J. Med. Chem. 47:6854-6863 (2004); cited from earlier work
T1 sequence (Q07973 36-514): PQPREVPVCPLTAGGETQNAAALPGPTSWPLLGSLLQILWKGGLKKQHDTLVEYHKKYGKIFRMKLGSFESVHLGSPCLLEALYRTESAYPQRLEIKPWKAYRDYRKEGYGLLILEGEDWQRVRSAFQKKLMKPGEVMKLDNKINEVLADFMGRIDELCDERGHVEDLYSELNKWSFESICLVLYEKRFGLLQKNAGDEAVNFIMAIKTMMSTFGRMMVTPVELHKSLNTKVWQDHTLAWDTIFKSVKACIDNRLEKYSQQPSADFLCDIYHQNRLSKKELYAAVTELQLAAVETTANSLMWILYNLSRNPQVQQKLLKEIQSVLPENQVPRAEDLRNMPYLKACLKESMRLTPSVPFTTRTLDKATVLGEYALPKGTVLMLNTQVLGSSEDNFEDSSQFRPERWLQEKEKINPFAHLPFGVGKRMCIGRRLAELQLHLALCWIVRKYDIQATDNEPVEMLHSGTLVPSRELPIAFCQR

[2] = system: AIB1 mRNA in OVCAR-3 cells; assay: RPA of nuclear receptor coregulator mRNA; type: cell-based, human; settings: 10 μM, 24 hour
From the text: Briefly, ^32P-labelled ([α-^32P]UTP, Amersham Biosciences, Buckinghamshire, UK) RNA-probes were synthesised using in vitro transcription reaction (In vitro transcription reaction kit, Pharmingen, San Diego, Calif.) using two different template sets. […] A coregulator set produces probes for NCoR (360 bp), SMRT (310 bp), pCAF (267 bp), CBP (234 bp), TIF2 (200 bp), AIB1 (179 bp), SRC-1a (145 bp) and −1e (160 bp) and p300 (127 bp); 18S (80 bp) was used as loading control with each probe set.

[3] = system: SK-OV-3 cells; assay: Cell growth assay, crystal violet, 11 days; type: cell-based, human; settings: alone (1 or 10 μM)
Experimental: (§1) The human ovarian adenocarcinoma cell line, OVCAR-3 (ATCC, Manassas, Va.) was maintained, as recommended by the supplier, in RPMI 1640 medium (Sigma Aldrich, St. Louis, Mo.) supplemented with 10% FBS, 10 μg/ml insulin, 0.25% glucose and antibiotics (100 IU/ml penicillin, 100 μg/ml streptomycin). Human ovarian adenocarcinoma cell lines UT-OC-1, UT-OC-2, UT-OC-3, UT-OC-4, UT-OC-5 (Grenman, S., Engblom, P., Rantanen, V., Klemi, P. and Isola, J., “Cytogenetic Characterization of Five New Ovarian Carcinoma Cell Lines,” Acta Obstet. Gynecol. Scand., 76:83 (1997)) and SK-OV-3 and a human keratinocyte cell line HaCaT were grown in DMEM (Sigma Aldrich) with 10% FBS and antibiotics (100 IU/ml penicillin, 100 μg/ml streptomycin), and monkey kidney COS cells were maintained in DMEM/F12 (Sigma Aldrich) with 5% FBS. All cell lines were kept at 37° C. in a humidified 95% air/5% CO2 incubator.
(§2) When OVCAR-3 cells were on the logarithmic growth phase (70% confluent) the growth assay was started. For cell growth assay, 2,000 cell/200 μl/well were plated on 96-well culture plates. […] Ethanol was used as a vehicle, and it was also included in the control. The medium containing ethanol vehicle and/or hormones were changed to a fresh one every third day. Cell growth samples were taken 0, 1, 3, 5, 7, 9 and 11 days after the treatment.
(§3) Relative cell numbers were quantified as described previously (Kueng W, Silber E, Eppenberger U. Quantification of cells cultured on 96-well plates. Anal. Biochem., 182:16-9 (1989)). Cells were fixed on the bottom of the wells by addition of 10 μl of 11% glutaraldehyde solution in 0.1% phosphate buffer to 100 μl of medium. The plate was shaken 500 cycles/min for 15 min, washed 3 times by submersion in de-ionised water and air-dried. Fixed cells were stained with 0.1% solution of crystal violet dissolved in de-ionised water. After 20 min incubation, excess dye was removed by carefully washing with de-ionised water. The plate was air-dried prior to a bound dye solubilisation in 100 μl of 10% acetic acid. Relative cell number was given as absorbance units by measuring the optical density (590 nm) from each well using Victor 1420 multilabel counter (Wallac, Turku, Finland). Six determinations were used to calculate the mean optical density ±SD in each concentration at each time point. The absorbance value of day 0 (an overnight culture of 2,000 cells/well) was set as 0 by subtracting it from each value obtained from adjacent time-point measurements (days 1-11), and based on these values growth curves were created. Experiments were repeated 3-5 times. Day 11 was used to compare the effect of hormone treatments and 24OHase inhibitor. Statistical analyses were done using Student's t-test.
(§4) Cell growth samples were obtained after 11 days treatment.

[4] = system: UT-OC-1 cells; assay: Cell growth assay, crystal violet, 11 days; type: cell-based, human; settings: 11 days
Experimental: as §1, §2, §3, §4

[5] = system: UT-OC-4 cells; assay: Cell growth assay, crystal violet, 11 days; type: cell-based, human; settings: 11 days
Experimental: as §1, §2, §3, §4

[6] = system: RARβ mRNA in SK-OV-3 cells; assay: RPA and quantitative RT-PCR of receptor mRNA; type: cell-based, human; settings: 10 μM, 24 hour
From the text: (§5) Briefly, ^32P-labelled ([α-^32P]UTP, Amersham Biosciences, Buckinghamshire, UK) RNA-probes were synthesised using in vitro transcription reaction (In vitro transcription reaction kit, Pharmingen, San Diego, Calif.) using two different template sets.
(§6) RPLP0 was used as reference gene.

[7] = system: RARγ mRNA in UT-OC-1 cells; assay: RPA and quantitative RT-PCR of receptor mRNA; type: cell-based, human; settings: 24 hour
From the text: as §5, §6

[8] = system: RARα mRNA in SK-OV-3 cells; assay: RPA and quantitative RT-PCR of receptor mRNA; type: cell-based, human; settings: 24 hour
From the text: as §5, §6

[9] = system: RARγ mRNA in SK-OV-3 cells; assay: RPA and quantitative RT-PCR of receptor mRNA; type: cell-based, human; settings: 24 hour
From the text: as §5, §6

[10] = system: RARβ mRNA in OVCAR-3 cells; assay: RPA and quantitative RT-PCR of receptor mRNA; type: cell-based, human; settings: 10 μM, 24 hour
From the text: as §5, §6

[11] = system: VDR mRNA in UT-OC-1 cells; assay: RPA and quantitative RT-PCR of receptor mRNA; type: cell-based, human; settings: 24 hour
From the text: as §5, §6

[12] = system: CWR22Rv-1 prostate cancer cells; assay: Cell growth, methylene blue uptake (Experiment VI); type: cell-based; settings: calcitriol alone, compared with OVCAR-3
Experimental: (§7) Culture conditions were the same as for Experiment I. Cell growth was measured using uptake of methylene blue (0.5% in 50% ethanol), followed by air drying and release of the dye in 1% sodium N-lauroyl sarcosine in PBS.

[13] = system: DU145 prostate cancer cells; assay: Cell growth, methylene blue uptake (Experiment VI); type: cell-based; settings: calcitriol alone, compared with OVCAR-3
Experimental: as §7

[14] = system: PC3 prostate cancer cells; assay: Cell growth, methylene blue uptake (Experiment VI); type: cell-based; settings: calcitriol alone, compared with OVCAR-3
Experimental: as §7

[15] = system: OVCAR-3 ovarian cancer cells; assay: Cell growth, methylene blue uptake (Experiment VI); type: cell-based, human; settings: calcitriol alone
Experimental: as §7

[16] = system: 24OHase mRNA in OVCAR-3 cells; assay: Quantitative RT-PCR of 24OHase mRNA; type: cell-based, human; settings: 100 nM
Experimental: Ethanol was used as a vehicle, and it was also added to the control cells. For RNA extraction, the cells were collected 4, 6 and 24 hr after the treatment with vitamin D compound or vehicle. RNA extractions were done with TRIZOL reagent (GIBCO Invitrogen Corporation, Paisley, UK). The integrity of RNA samples was confirmed on gel electrophoresis. […] The reactions for 24-hydroxylase were performed in the LightCycler instrument (Roche Diagnostics, Basel, Switzerland) from 300 ng total RNA. PBGD (human porphobilinogendeaminase) mRNA was used as an […] control. […] Nucleotides, Tth DNA polymerase (DNA polymerase and reverse transcriptase activity), SYBR Green I and reaction buffer were included in the LightCycler-RNA Master SYBR Green I kit (Roche Diagnostics). […] Cell. […] Detection of fluorescent product was performed at the end of the extension step of each cycle. To verify the specific products, melting curve analysis and gel electrophoresis were done. The data were quantified by the Fit Points method with LightCycler Data Analysis software. […] Hormone treatments and RT-PCR were done twice.

[17] = system: OVCAR-3 cells; assay: Cell growth assay, crystal violet, 11 days; type: cell-based, human; settings: 11 days; for inhibition at 0.1 µM: 100 nM
Experimental: as §1, §2, §3
The cell growth response was determined as described in Experiment I. Briefly, cells were treated with indicated hormone concentrations or combinations of hormone and 24OHase inhibitor (VID400) for 11 days. The growth medium and hormones were changed to a fresh one every third day. After the treatment period, cells were fixed, stained with crystal violet, and the optical density (590 nm) was determined. The cell growth is presented as a percentage of ethanol-treated cells. The values represent the mean of 3 separate experiments ±SD. (*p<0.05, **p<0.001, ***p<0.0001, Student's t-test).
as §4

[18] = system: 24OHase mRNA in ovarian cancer cell lines; assay: RPA and RT-PCR of 24OHase induction, all cell lines; type: cell-based, human; settings: 100 nM, 24 h, every cell line
From the text: as §5, §6

[19] = system: 24OHase mRNA in UT-OC-5 cells; assay: RPA and RT-PCR of 24OHase induction; type: cell-based, human; settings: 24 h
From the text: as §5, §6

[20] = Homo sapiens, OVCAR-3, 264 h, read-out: inhibited growth compared to the control

SMILES | inhibitory potency for 24-hydroxylase [1] | AIB1 expression [2] | effect on cell growth [3] | effect on cell growth ([4]; 10 μM alone) | effect on cell growth ([5]; 10 μM alone) | RARβ expression [6] | up regulation of RARγ compared to control ([7]; 10 μM) [%] | RARα expression ([8]; 10 μM) | increase of RARγ compared to control ([9]; 10 μM) [%] | RARβ expression [10] | VDR expression ([11]; 10 μM) | effect on cell growth ([4]; 100 nM alone) | effect on cell growth ([5]; 100 nM alone) | up regulation of RARγ compared to control ([7]; 100 nM) [%] | RARα expression ([8]; 100 nM) | increase of RARγ compared to control ([9]; 100 nM) [%] | induction of 24OHase mRNA expression ([16]; 6 hr treatment) [fold] | induction of 24OHase mRNA expression ([16]; 24 hr treatment) | inhibition at 0.1 µM [17, 20] [%] | further results
C=C1/C(=C\C=C2/CCCC3(C)C2CC[C@@H]3[C@H](C)CCS(=N)(=O)c2ccccc2)C[C@@H](O)C[C@@H]1O (stereo partly shown) [Formula V] | most potent compound |  |  |  |  |  |  |  |  |  |  |  |  |  |  |  |  |  |  | 
CC1=C(/C=C/C(C)=C\C=C\C(C)=C\C(=O)O)C(C)(C)CCC1 [9-CRA, 9-cis retinoic acid] |  | 171 (±5) % of ethanol-treated control | inhibited the growth of SK-OV-3 cells | inhibited cell growth with equal magnitude | inhibited UT-OC-4 cell growth | 345±17 % of control | 44±15 | 195±1 % of control | 119±52 | 276±68 % of control | 58±25 % of control |  |  |  |  |  |  |  |  | 
C=C1/C(=C\C=C2/CCC[C@]3(C)[C@@H]([C@H](C)CCCC(C)(C)O)CC[C@@H]23)C[C@@H](O)C[C@@H]1O [1,25(OH)2D3, calcitriol] |  |  |  |  |  |  |  |  |  |  |  | did not inhibit the cell growth | did not restrain cell growth | 91±81 | 186±8 % of control | 78±12 | 650 | 1,100 fold | 74 | effect on cell growth [12]: less pronounced; effect on cell growth [13]: less pronounced; effect on cell growth [14]: less pronounced; effect on cell growth [15]: inhibited cell growth in a concentration-dependent manner; stimulated growth compared to the control ([17]; 0.1 nM): 14%; effect on the cell growth ([17]; 1 nM alone, Experiment IV): did not have an effect on the cell growth; effect on the cell growth ([17]; 1 nM, Experiment I): did not have an effect on the cell growth; inhibition at 0.01 µM ([17]; Homo sapiens, OVCAR-3, 264 h, 10 nM alone, Experiment IV, read-out: growth inhibition compared to the control): 26%; inhibition at 0.01 µM ([17]; Homo sapiens, OVCAR-3, 264 h, 10 nM, Experiment I, read-out: inhibited growth compared to the control): 8%
CC1=C(/C=C/C(C)=C/C=C/C(C)=C/C(=O)O)C(C)(C)CCC1 [ATRA, all-trans-retinoic acid] |  | 160 (±10) % of ethanol-treated control | inhibited the growth of SK-OV-3 cells | inhibited cell growth with equal magnitude | inhibited UT-OC-4 cell growth | 657±30 % of control | 83±66 | 293±70 % of control | 119±19 | 214±127 % of control | 53±11 % of control |  |  |  |  |  |  |  |  | 
C=C1/C(=C\C=C2/CCC[C@]3(C)[C@@H]([C@H](C)/C=C/C=C/C(O)(CC)CC)CC[C@@H]23)C[C@@H](O)C[C@@H]1O [EB 1089] |  |  |  |  |  |  |  |  |  |  |  | did not inhibit the cell growth | did not restrain cell growth | 47±7 | 134±10 % of control | 51±7 | 600 | 1,000 fold | 84 | induction of 24OHase expression compared with 1,25(OH)2D3 [18]: more effective in inducing 24OHase expression; 24OHase induction relative to 100 nM 1,25(OH)2D3 [19]: more than two-fold stronger inducer; VDR expression ([11]; 100 nM): 47±8 % of control; inhibition at 0.001 µM ([17]; Homo sapiens, OVCAR-3, 264 h, 1 nM, read-out: inhibited growth compared to the control): 73%; effect on cell proliferation ([17]; alone (10 or 100 nM), Experiment V): markedly inhibited the proliferation
C=C1/C(=C\C=C2/CCCC3(C)C2CC[C@@H]3[C@H](C)CCS(=N)(=O)c2ccc(F)cc2)C[C@@H](O)C[C@@H]1O (stereo partly shown) [Formula VI] | Only slightly less potent |  |  |  |  |  |  |  |  |  |  |  |  |  |  |  |  |  |  | 

— patent US20060074109A1, “Use of inhibitors of 24-hydroxylase in the treatment of cancer” (Sapphire Therapeutics, Inc., priority 2004, published 2006)
